Measured values reported in ChEMBL document CHEMBL5375987, “Structural Fusion of Natural and Synthetic Ligand Features Boosts RXR Agonist Potency” (J Med Chem, 2023).
Converted amounts (≈) assume the structure as drawn. Blank lines part the entries; values can stand above or below the compound they belong to.

Assays:
[1] = target: T1, Retinoic acid receptor RXR-beta (Homo sapiens, UniProt P28702); assay: Agonist activity at full length human RXR beta expressed in HEK293T cells measured after 16 hrs by Dual-glo luciferase assay; type: cell-based
T1 sequence (P28702 whole entry): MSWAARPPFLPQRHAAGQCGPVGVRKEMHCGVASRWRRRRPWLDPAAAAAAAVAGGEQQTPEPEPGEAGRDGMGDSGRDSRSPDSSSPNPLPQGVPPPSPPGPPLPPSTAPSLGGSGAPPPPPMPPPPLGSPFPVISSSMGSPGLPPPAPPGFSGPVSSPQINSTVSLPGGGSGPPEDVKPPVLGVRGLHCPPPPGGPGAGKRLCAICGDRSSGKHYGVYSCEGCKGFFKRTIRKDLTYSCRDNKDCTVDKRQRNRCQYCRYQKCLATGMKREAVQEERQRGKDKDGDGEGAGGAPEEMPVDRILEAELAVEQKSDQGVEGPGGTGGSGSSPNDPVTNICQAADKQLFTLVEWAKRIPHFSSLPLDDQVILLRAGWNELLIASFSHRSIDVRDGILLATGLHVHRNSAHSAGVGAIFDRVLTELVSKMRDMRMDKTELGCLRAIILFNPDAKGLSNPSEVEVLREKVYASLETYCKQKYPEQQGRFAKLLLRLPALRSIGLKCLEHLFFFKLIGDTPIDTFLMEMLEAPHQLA

[2] = target: T2, Retinoic acid receptor RXR-alpha (Homo sapiens, UniProt P19793)
T2 sequence (P19793 whole entry): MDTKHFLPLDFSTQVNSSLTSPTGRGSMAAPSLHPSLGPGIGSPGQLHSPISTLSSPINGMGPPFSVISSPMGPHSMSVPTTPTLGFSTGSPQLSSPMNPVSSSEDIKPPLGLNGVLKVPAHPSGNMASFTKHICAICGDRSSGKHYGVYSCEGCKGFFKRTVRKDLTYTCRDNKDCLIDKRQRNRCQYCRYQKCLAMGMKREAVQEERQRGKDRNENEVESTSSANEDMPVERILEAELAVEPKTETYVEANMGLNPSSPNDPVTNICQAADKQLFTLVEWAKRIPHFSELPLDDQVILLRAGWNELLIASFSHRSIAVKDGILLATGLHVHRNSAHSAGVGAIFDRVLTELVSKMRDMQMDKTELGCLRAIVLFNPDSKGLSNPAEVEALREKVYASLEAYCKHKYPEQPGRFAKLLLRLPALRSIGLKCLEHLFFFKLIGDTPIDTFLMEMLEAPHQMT
Description: Agonist activity at full length human RXR alpha expressed in HEK293T cells measured after 16 hrs by Dual-glo luciferase assay

[3] = target: T3, Retinoic acid receptor RXR-gamma (Homo sapiens, UniProt P48443); assay: Agonist activity at full length human RXR gamma expressed in HEK293T cells measured after 16 hrs by Dual-glo luciferase assay; type: cell-based
T3 sequence (P48443 whole entry): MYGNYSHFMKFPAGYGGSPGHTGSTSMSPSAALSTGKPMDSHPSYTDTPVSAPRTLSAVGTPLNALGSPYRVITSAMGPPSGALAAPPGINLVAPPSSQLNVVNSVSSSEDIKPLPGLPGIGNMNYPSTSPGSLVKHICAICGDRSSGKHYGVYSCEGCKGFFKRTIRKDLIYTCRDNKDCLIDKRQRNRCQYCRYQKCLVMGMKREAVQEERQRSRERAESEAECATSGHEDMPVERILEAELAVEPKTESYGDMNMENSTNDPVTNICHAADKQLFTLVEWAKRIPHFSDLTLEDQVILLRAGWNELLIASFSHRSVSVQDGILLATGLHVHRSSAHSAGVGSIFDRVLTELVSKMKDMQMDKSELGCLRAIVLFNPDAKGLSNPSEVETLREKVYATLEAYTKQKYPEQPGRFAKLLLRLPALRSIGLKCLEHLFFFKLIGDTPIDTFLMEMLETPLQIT

[4] = Microsomal stability in Sprague-Dawley rat liver microsomes assessed as half life at 10 uM in presence of NADPH by HPLC-UV method; type: ADME, Microsome
[5] = target: T4, Nuclear receptor subfamily 1 group I member 3 (Homo sapiens, UniProt Q14994); assay: Inverse agonist activity at NR1I3 (unknown origin) at 1 uM
T4 sequence (Q14994 whole entry): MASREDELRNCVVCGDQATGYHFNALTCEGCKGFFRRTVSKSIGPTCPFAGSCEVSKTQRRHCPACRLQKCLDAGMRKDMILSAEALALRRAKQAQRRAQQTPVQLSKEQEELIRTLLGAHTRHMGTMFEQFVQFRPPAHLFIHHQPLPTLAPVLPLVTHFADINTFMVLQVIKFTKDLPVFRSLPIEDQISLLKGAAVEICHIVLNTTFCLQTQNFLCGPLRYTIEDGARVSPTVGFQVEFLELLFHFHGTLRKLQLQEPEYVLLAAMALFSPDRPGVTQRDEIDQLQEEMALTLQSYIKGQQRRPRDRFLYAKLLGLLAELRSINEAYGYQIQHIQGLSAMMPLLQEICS

[6] = target: T4, Nuclear receptor subfamily 1 group I member 3; assay: Agonist activity at NR1I3 (unknown origin) at 1 uM
[7] = Thermodynamic aqueous solubility of compound at 24 degreeC measured after 24 hrs by SpectraMax M5e plate reader analysis; type: physicochemical; details: aqueous medium, read-out: Therm_solubility
[8] = Microsomal stability in Sprague-Dawley rat liver microsomes assessed as compound remaining at 10 uM measured auto 60 mins in presence of NADPH by HPLC-UV method; type: ADME, Microsome; details: read-out: Stability
[9] = target: T4, Nuclear receptor subfamily 1 group I member 3; assay: Antagonist activity at NR1I3 (unknown origin) at 1 uM
[10] = test system: COS-7; assay: Cytotoxicity against green monkey COS-7 cells assessed as inhibition of cell growth at upto 30 uM measured after 24 hrs CCK-8 method; type: toxicity, cell-based; details: chlorocebus aethiops, cos-7, 24 h

SMILES: C/C(C(=O)O)=C(/C)c1nc(-c2ccccc2)c(-c2ccccc2)o1
EC50 [1]: 1.9 µM

SMILES: C/C(=C\C(=O)O)c1nc(-c2ccccc2)c(-c2ccccc2)o1
EC50 [1]: 7.4 µM

SMILES: O=C(O)/C=C/c1nc(-c2ccccc2)c(-c2ccccc2)o1
EC50 [2]: 13 µM
EC50 [1]: 13.1 µM

SMILES: O=C(O)/C=C/c1nc(-c2ccccc2)c(-c2cc(C(F)(F)F)cc(C(F)(F)F)c2)o1
EC50 [3]: 0.057 µM

The next lines start with results.

half-life at 10 µM [4]: > 2 h
Activity [5]: Not Active
Activity [6]: Not Active
solubility thermodynamic at 24 h [7]: 18.3 µM (≈ 8.08 µg/mL)
remaining at 1 h, 10 µM [8]: 79%
Activity [9]: Not Active
SMILES: O=C(O)[C@@H]1C[C@H]1c1nc(-c2ccccc2)c(-c2cc(C(F)(F)F)cc(C(F)(F)F)c2)o1 (racemic)
Activity [10]: Non-Toxic

solubility thermodynamic at 24 h [7]: 5.8 µM (≈ 2.48 µg/mL)
SMILES: OC[C@@H]1C[C@H]1c1nc(-c2ccccc2)c(-c2cc(C(F)(F)F)cc(C(F)(F)F)c2)o1 (racemic)
